Several values for one entry are separate records, joined by “and”; a condition that tells them apart may be missing. Equal values may be shown once.
Tests used:
S. furcifera adults = assay: Y-tube olfactometer behavioral trials; assay type: in vivo, Sogatella furcifera; details: odorant 50 µL/L vs hexane; adults
Summary of the method: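 Single S. furcifera adults (2 days post-emergence, starved 0.5 h) chose between odorant (100 µL of 50 µL/L on filter paper) and hexane control in a glass Y-tube, charcoal-filtered humidified air 300 mL/min per arm, 25 ± 1 °C, 50% RH. Choice scored if insect passed half an arm and stayed >1 min within 10 min; 45 insects per compound, chi-squared test.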

SfurOBP2 = SfurOBP2 (Sogatella furcifera, UniProt V5T759); assay: biochemical; assay type: binding
Summary of the method: (§1)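 1-NPN displacement assay with odorant competitor at 2–20 µM; protein and probe both 2.0 µM at pH 7.4. Ki is calculated from IC50 using the protein/1-NPN dissociation constant.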

SfurOBP1 = SfurOBP1 (Sogatella furcifera, UniProt V5T8N5); assay: biochemical; assay type: binding; details: for Fluorescence competitive binding assay, fluorescence intensity: OBP1, three replicate columns
Summary of the method: as §1

SfurOBP11 = SfurOBP11 (Sogatella furcifera, UniProt V5T6E3); assay: biochemical; assay type: binding
Summary of the method: as §1

SfurOBP3 = SfurOBP3 (Sogatella furcifera, UniProt V5T818); assay: biochemical; assay type: binding; details: for Fluorescence competitive binding assay, fluorescence intensity: OBP3, three replicate columns
Summary of the method: as §1

Chain of SfurOBP11 (V5T6E3 entry or part of it): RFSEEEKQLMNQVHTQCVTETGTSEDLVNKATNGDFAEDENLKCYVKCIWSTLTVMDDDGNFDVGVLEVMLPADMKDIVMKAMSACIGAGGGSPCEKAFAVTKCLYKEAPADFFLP
Chain of SfurOBP3 (V5T818 entry or part of it): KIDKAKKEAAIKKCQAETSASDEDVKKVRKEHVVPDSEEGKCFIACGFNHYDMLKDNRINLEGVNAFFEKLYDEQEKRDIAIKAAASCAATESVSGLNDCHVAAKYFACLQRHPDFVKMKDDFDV
Chain of SfurOBP2 (V5T759 entry or part of it): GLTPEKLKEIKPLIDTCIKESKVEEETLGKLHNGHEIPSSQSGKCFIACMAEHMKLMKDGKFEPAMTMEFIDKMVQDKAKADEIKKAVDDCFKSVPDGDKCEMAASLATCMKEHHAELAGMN
Chain of SfurOBP1 (V5T8N5 entry or part of it): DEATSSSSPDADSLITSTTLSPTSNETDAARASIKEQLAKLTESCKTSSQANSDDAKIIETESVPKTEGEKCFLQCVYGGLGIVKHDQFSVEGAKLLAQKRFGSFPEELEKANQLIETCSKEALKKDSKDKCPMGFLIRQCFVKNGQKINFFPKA

## CCC/C=C/CO [(E)-2-hexenol]
S. furcifera adults
  number of insects choosing hexane arm: 9
  number of insects choosing volatilies arm: 8
  number of insects failed (no choice): 24
SfurOBP2
  IC50: > 20 µM
SfurOBP2; ligand concentration 2 (unit not given), replicate column 1 of 3
  Fluorescence competitive binding assay, OBP2 (raw fluorescence reading): 18290
SfurOBP2; ligand concentration 2 (unit not given), replicate column 2 of 3
  Fluorescence competitive binding assay, OBP2 (raw fluorescence reading): 18447
SfurOBP2; ligand concentration 2 (unit not given), replicate column 3 of 3
  Fluorescence competitive binding assay, OBP2 (raw fluorescence reading): 18531
SfurOBP2; ligand concentration 4 (unit not given), replicate column 1 of 3
  Fluorescence competitive binding assay, OBP2 (raw fluorescence reading): 17418
SfurOBP2; ligand concentration 4 (unit not given), replicate column 2 of 3
  Fluorescence competitive binding assay, OBP2 (raw fluorescence reading): 17308
SfurOBP2; ligand concentration 4 (unit not given), replicate column 3 of 3
  Fluorescence competitive binding assay, OBP2 (raw fluorescence reading): 17228
SfurOBP2; ligand concentration 6 (unit not given), replicate column 1 of 3
  Fluorescence competitive binding assay, OBP2 (raw fluorescence reading): 16794
SfurOBP2; ligand concentration 6 (unit not given), replicate column 2 of 3
  Fluorescence competitive binding assay, OBP2 (raw fluorescence reading): 16314
SfurOBP2; ligand concentration 6 (unit not given), replicate column 3 of 3
  Fluorescence competitive binding assay, OBP2 (raw fluorescence reading): 16504
SfurOBP2; ligand concentration 8 (unit not given), replicate column 1 of 3
  Fluorescence competitive binding assay, OBP2 (raw fluorescence reading): 15464
SfurOBP2; ligand concentration 8 (unit not given), replicate column 2 of 3
  Fluorescence competitive binding assay, OBP2 (raw fluorescence reading): 15780
SfurOBP2; ligand concentration 8 (unit not given), replicate column 3 of 3
  Fluorescence competitive binding assay, OBP2 (raw fluorescence reading): 16125
SfurOBP2; ligand concentration 10 (unit not given), replicate column 1 of 3
  Fluorescence competitive binding assay, OBP2 (raw fluorescence reading): 15191
SfurOBP2; ligand concentration 10 (unit not given), replicate column 2 of 3
  Fluorescence competitive binding assay, OBP2 (raw fluorescence reading): 14875
SfurOBP2; ligand concentration 10 (unit not given), replicate column 3 of 3
  Fluorescence competitive binding assay, OBP2 (raw fluorescence reading): 15159
SfurOBP2; ligand concentration 12 (unit not given), replicate column 1 of 3
  Fluorescence competitive binding assay, OBP2 (raw fluorescence reading): 14300
SfurOBP2; ligand concentration 12 (unit not given), replicate column 2 of 3
  Fluorescence competitive binding assay, OBP2 (raw fluorescence reading): 14543
SfurOBP2; ligand concentration 12 (unit not given), replicate column 3 of 3
  Fluorescence competitive binding assay, OBP2 (raw fluorescence reading): 14192
SfurOBP2; ligand concentration 14 (unit not given), replicate column 1 of 3
  Fluorescence competitive binding assay, OBP2 (raw fluorescence reading): 13523
SfurOBP2; ligand concentration 14 (unit not given), replicate column 2 of 3
  Fluorescence competitive binding assay, OBP2 (raw fluorescence reading): 13764
SfurOBP2; ligand concentration 14 (unit not given), replicate column 3 of 3
  Fluorescence competitive binding assay, OBP2 (raw fluorescence reading): 13447
SfurOBP2; ligand concentration 16 (unit not given), replicate column 1 of 3
  Fluorescence competitive binding assay, OBP2 (raw fluorescence reading): 12677
SfurOBP2; ligand concentration 16 (unit not given), replicate column 2 of 3
  Fluorescence competitive binding assay, OBP2 (raw fluorescence reading): 12355
SfurOBP2; ligand concentration 16 (unit not given), replicate column 3 of 3
  Fluorescence competitive binding assay, OBP2 (raw fluorescence reading): 12095
SfurOBP2; ligand concentration 18 (unit not given), replicate column 1 of 3
  Fluorescence competitive binding assay, OBP2 (raw fluorescence reading): 11796
SfurOBP2; ligand concentration 18 (unit not given), replicate column 2 of 3
  Fluorescence competitive binding assay, OBP2 (raw fluorescence reading): 11817
SfurOBP2; ligand concentration 18 (unit not given), replicate column 3 of 3
  Fluorescence competitive binding assay, OBP2 (raw fluorescence reading): 11503
SfurOBP2; ligand concentration 20 (unit not given), replicate column 1 of 3
  Fluorescence competitive binding assay, OBP2 (raw fluorescence reading): 11621
SfurOBP2; ligand concentration 20 (unit not given), replicate column 2 of 3
  Fluorescence competitive binding assay, OBP2 (raw fluorescence reading): 11220
SfurOBP2; ligand concentration 20 (unit not given), replicate column 3 of 3
  Fluorescence competitive binding assay, OBP2 (raw fluorescence reading): 11057
SfurOBP1
  IC50: > 20 µM
SfurOBP1; ligand concentration 2 (μM)
  Fluorescence competitive binding assay, fluorescence intensity: 5821 and 6205 and 6589
SfurOBP1; ligand concentration 4 (μM)
  Fluorescence competitive binding assay, fluorescence intensity: 7444 and 7124 and 7270
SfurOBP1; ligand concentration 6 (μM)
  Fluorescence competitive binding assay, fluorescence intensity: 8585 and 7896 and 9273
SfurOBP1; ligand concentration 8 (μM)
  Fluorescence competitive binding assay, fluorescence intensity: 8091 and 7978 and 7865
SfurOBP1; ligand concentration 10 (μM)
  Fluorescence competitive binding assay, fluorescence intensity: 8122 and 7477 and 6720
SfurOBP1; ligand concentration 12 (μM)
  Fluorescence competitive binding assay, fluorescence intensity: 5971 and 6877 and 6423
SfurOBP1; ligand concentration 14 (μM)
  Fluorescence competitive binding assay, fluorescence intensity: 6112 and 6019 and 6107
SfurOBP1; ligand concentration 16 (μM)
  Fluorescence competitive binding assay, fluorescence intensity: 6252 and 5805 and 6056
SfurOBP1; ligand concentration 18 (μM)
  Fluorescence competitive binding assay, fluorescence intensity: 8503 and 8229 and 10760
SfurOBP1; ligand concentration 20 (μM)
  Fluorescence competitive binding assay, fluorescence intensity: 7495 and 8100 and 7787
SfurOBP11
  IC50: > 20 µM
SfurOBP11; ligand concentration 2, replicate 1
  Fluorescence intensity, fluorescence competitive binding assay, OBP11: 34795
SfurOBP11; ligand concentration 2, replicate 2
  Fluorescence intensity, fluorescence competitive binding assay, OBP11: 32362
SfurOBP11; ligand concentration 2, replicate 3
  Fluorescence intensity, fluorescence competitive binding assay, OBP11: 33570
SfurOBP11; ligand concentration 4, replicate 1
  Fluorescence intensity, fluorescence competitive binding assay, OBP11: 31605
SfurOBP11; ligand concentration 4, replicate 2
  Fluorescence intensity, fluorescence competitive binding assay, OBP11: 31826
SfurOBP11; ligand concentration 4, replicate 3
  Fluorescence intensity, fluorescence competitive binding assay, OBP11: 31807
SfurOBP11; ligand concentration 6, replicate 1
  Fluorescence intensity, fluorescence competitive binding assay, OBP11: 29600
SfurOBP11; ligand concentration 6, replicate 2
  Fluorescence intensity, fluorescence competitive binding assay, OBP11: 28910
SfurOBP11; ligand concentration 6, replicate 3
  Fluorescence intensity, fluorescence competitive binding assay, OBP11: 29255
SfurOBP11; ligand concentration 8, replicate 1
  Fluorescence intensity, fluorescence competitive binding assay, OBP11: 27040
SfurOBP11; ligand concentration 8, replicate 2
  Fluorescence intensity, fluorescence competitive binding assay, OBP11: 29546
SfurOBP11; ligand concentration 8, replicate 3
  Fluorescence intensity, fluorescence competitive binding assay, OBP11: 25961
SfurOBP11; ligand concentration 10, replicate 1
  Fluorescence intensity, fluorescence competitive binding assay, OBP11: 25687
SfurOBP11; ligand concentration 10, replicate 2
  Fluorescence intensity, fluorescence competitive binding assay, OBP11: 25600
SfurOBP11; ligand concentration 10, replicate 3
  Fluorescence intensity, fluorescence competitive binding assay, OBP11: 25774
SfurOBP11; ligand concentration 12, replicate 1
  Fluorescence intensity, fluorescence competitive binding assay, OBP11: 25617
SfurOBP11; ligand concentration 12, replicate 2
  Fluorescence intensity, fluorescence competitive binding assay, OBP11: 23726
SfurOBP11; ligand concentration 12, replicate 3
  Fluorescence intensity, fluorescence competitive binding assay, OBP11: 24242
SfurOBP11; ligand concentration 14, replicate 1
  Fluorescence intensity, fluorescence competitive binding assay, OBP11: 22896
SfurOBP11; ligand concentration 14, replicate 2
  Fluorescence intensity, fluorescence competitive binding assay, OBP11: 21710
SfurOBP11; ligand concentration 14, replicate 3
  Fluorescence intensity, fluorescence competitive binding assay, OBP11: 22816
SfurOBP11; ligand concentration 16, replicate 1
  Fluorescence intensity, fluorescence competitive binding assay, OBP11: 19721
SfurOBP11; ligand concentration 16, replicate 2
  Fluorescence intensity, fluorescence competitive binding assay, OBP11: 20050
SfurOBP11; ligand concentration 16, replicate 3
  Fluorescence intensity, fluorescence competitive binding assay, OBP11: 20211
SfurOBP11; ligand concentration 18, replicate 1
  Fluorescence intensity, fluorescence competitive binding assay, OBP11: 19470
SfurOBP11; ligand concentration 18, replicate 2
  Fluorescence intensity, fluorescence competitive binding assay, OBP11: 19537
SfurOBP11; ligand concentration 18, replicate 3
  Fluorescence intensity, fluorescence competitive binding assay, OBP11: 20671
SfurOBP11; ligand concentration 20, replicate 1
  Fluorescence intensity, fluorescence competitive binding assay, OBP11: 20038
SfurOBP11; ligand concentration 20, replicate 2
  Fluorescence intensity, fluorescence competitive binding assay, OBP11: 19843
SfurOBP11; ligand concentration 20, replicate 3
  Fluorescence intensity, fluorescence competitive binding assay, OBP11: 19956
SfurOBP3
  IC50: > 20 µM
SfurOBP3; ligand concentration 2
  Fluorescence competitive binding assay, fluorescence intensity: 55419 and 52631 and 56435
SfurOBP3; ligand concentration 4
  Fluorescence competitive binding assay, fluorescence intensity: 52848 and 53720 and 53070
SfurOBP3; ligand concentration 6
  Fluorescence competitive binding assay, fluorescence intensity: 56485 and 54348 and 51437
SfurOBP3; ligand concentration 8
  Fluorescence competitive binding assay, fluorescence intensity: 53820 and 44741 and 53024
SfurOBP3; ligand concentration 10
  Fluorescence competitive binding assay, fluorescence intensity: 50999 and 49511 and 49866
SfurOBP3; ligand concentration 12
  Fluorescence competitive binding assay, fluorescence intensity: 51314 and 45497 and 46649
SfurOBP3; ligand concentration 14
  Fluorescence competitive binding assay, fluorescence intensity: 46992 and 46379 and 46282
SfurOBP3; ligand concentration 16
  Fluorescence competitive binding assay, fluorescence intensity: 39521 and 39562 and 39433
SfurOBP3; ligand concentration 18
  Fluorescence competitive binding assay, fluorescence intensity: 45227 and 50180 and 45511
SfurOBP3; ligand concentration 20
  Fluorescence competitive binding assay, fluorescence intensity: 47692 and 45313 and 40014

— article PMC6409085, “Three odorant-binding proteins are involved in the behavioral response of Sogatella furcifera to rice plant volatiles” (PeerJ, 2019)
